Laboratory results published in ChEMBL document CHEMBL4622980, “Peptide Inhibitors of Bacterial Protein Synthesis with Broad Spectrum and SbmA-Independent Bactericidal Activity against Clinical Pathogens” (J Med Chem, 2020).
Values after ≈ are worked out from the molar mass of the structure shown. Non-standard residues stand in square brackets, D forms with d. Residues, ends and D or L forms follow the SMILES beside them. ξ: configuration not given here. ξP = O=C(O)C1CCCN1

Test system: Escherichia coli
Test: Antibacterial activity against Escherichia coli BW25113 assessed as prevention visible bacterial growth incubated for 18 hrs
Type: functional
Settings: BW25113, 18 h

Compound	MIC99
CC(C)C[C@H](NC(=O)[C@H](CCCNC(=N)N)NC(=O)[C@@H]1CCCN1C(=O)[C@@H]1CCCN1C(=O)[C@H](CCCNC(=N)N)NC(=O)[C@@H]1CCCN1C(=O)[C@H](CCCNC(=N)N)NC(=O)C1CCCN1C(=O)[C@H](CCCNC(=N)N)NC(=O)[C@@H](N)CCCNC(=N)N)C(=O)N1CCC[C@H]1C(=O)N[C@@H](CCCNC(=N)N)C(=O)N1CCC[C@H]1C(=O)N[C@@H](CCCNC(=N)N)C(=O)N1CCC[C@H]1C(=O)N[C@@H](CCCNC(=N)N)C(=O)O (some centres not stated) (H-RR[ξP]RPRPPRLPRPRPR-OH)	16 µM (≈ 33 µg/mL)
CC[C@H](C)[C@H](NC(=O)C1CCCN1C(=O)[C@@H](N)CCCNC(=N)N)C(=O)N[C@@H](CCCNC(=N)N)C(=O)N1CCC[C@H]1C(=O)N[C@@H](CCCNC(=N)N)C(=O)N1CCC[C@H]1C(=O)N1CCC[C@H]1C(=O)N[C@@H](CCCNC(=N)N)C(=O)N[C@@H](CC(C)C)C(=O)N1CCC[C@H]1C(=O)N[C@@H](CCCNC(=N)N)C(=O)N1CCC[C@H]1C(=O)N[C@@H](CCCNC(=N)N)C(=O)N1CCC[C@H]1C(=O)N[C@@H](CCCNC(=N)N)C(=O)O (some centres not stated) (H-R[ξP]IRPRPPRLPRPRPR-OH)	64 µM (≈ 129 µg/mL)
H-ARIRPRPPRLPRPRPR-OH	4 µM
H-ERIRPRPPRLPRPRPR-OH	64 µM
H-FRIRPRPPRLPRPRPR-OH	4 µM
H-GRIRPRPPRLPRPRPR-OH	8 µM
H-IRPLPPRRPRRPRRRP-OH	64 µM
H-PRIRPRPPRLPRPRPR-OH	8 µM
H-RAIRPRPPRLPRPRPR-OH	16 µM
H-REIRPRPPRLPRPRPR-OH	64 µM
H-RFIRPRPPRLPRPRPR-OH	16 µM
H-RGIRPRPPRLPRPRPR-OH	16 µM
H-RRARPRPPRLPRPRPR-OH	16 µM
H-RRERPRPPRLPRPRPR-OH	64 µM
H-RRFRPRPPRLPRPRPR-OH	16 µM
H-RRGRPRPPRLPRPRPR-OH	16 µM
H-RRIAPRPPRLPRPRPR-OH	16 µM
H-RRIEPRPPRLPRPRPR-OH	> 64 µM
H-RRIFPRPPRLPRPRPR-OH	16 µM

Compound	MIC99
H-RRIGPRPPRLPRPRPR-OH	16 µM
H-RRIPPRPPRLPRPRPR-OH	16 µM
H-RRIRARPPRLPRPRPR-OH	8 µM
H-RRIRERPPRLPRPRPR-OH	32 µM
H-RRIRFRPPRLPRPRPR-OH	8 µM
H-RRIRGRPPRLPRPRPR-OH	8 µM
H-RRIRPAPPRLPRPRPR-OH	16 µM
H-RRIRPEPPRLPRPRPR-OH	> 64 µM
H-RRIRPFPPRLPRPRPR-OH	16 µM
H-RRIRPGPPRLPRPRPR-OH	32 µM
H-RRIRPPPPRLPRPRPR-OH	32 µM
H-RRIRPRAPRLPRPRPR-OH	16 µM
H-RRIRPREPRLPRPRPR-OH	32 µM
H-RRIRPRFPRLPRPRPR-OH	8 µM
H-RRIRPRGPRLPRPRPR-OH	16 µM
H-RRIRPRPARLPRPRPR-OH	16 µM
H-RRIRPRPERLPRPRPR-OH	64 µM
H-RRIRPRPFRLPRPRPR-OH	16 µM
H-RRIRPRPGRLPRPRPR-OH	16 µM

Compound	MIC99
H-RRIRPRPPALPRPRPR-OH	64 µM
H-RRIRPRPPELPRPRPR-OH	> 64 µM
H-RRIRPRPPFLPRPRPR-OH	16 µM
H-RRIRPRPPGLPRPRPR-OH	64 µM
H-RRIRPRPPPLPRPRPR-OH	16 µM
H-RRIRPRPPRAPRPRPR-OH	64 µM
H-RRIRPRPPREPRPRPR-OH	> 64 µM
H-RRIRPRPPRFPRPRPR-OH	32 µM
H-RRIRPRPPRGPRPRPR-OH	64 µM
H-RRIRPRPPRLARPRPR-OH	32 µM
H-RRIRPRPPRLERPRPR-OH	64 µM
H-RRIRPRPPRLFRPRPR-OH	32 µM
H-RRIRPRPPRLGRPRPR-OH	32 µM
H-RRIRPRPPRLPAPRPR-OH	32 µM
H-RRIRPRPPRLPEPRPR-OH	> 64 µM
H-RRIRPRPPRLPFPRPR-OH	16 µM
H-RRIRPRPPRLPGPRPR-OH	32 µM
H-RRIRPRPPRLPPPRPR-OH	32 µM
H-RRIRPRPPRLPRARPR-OH	16 µM
